Experiments:
Bile salt export pump = Bile salt export pump (Homo sapiens, UniProt O95342); assay: Inhibition of human BSEP overexpressed in Sf9 cell membrane vesicles assessed as uptake of [3H]-taurocholate in presence of ATP measured after 15 to 20 mins by membrane vesicle transport assay; format: ADME, cell-based
[1] = molecular target: ATP-binding cassette sub-family C member 2 (Homo sapiens, UniProt Q92887); assay: Inhibition of human MRP2 overexpressed in Sf9 cell membrane vesicles assessed as uptake of [3H]-estradiol-17beta-D-glucuronide in presence of ATP and GSH measured after 20 mins by membrane vesicle transport assay
[2] = molecular target: ATP-binding cassette sub-family C member 3 (Homo sapiens, UniProt O15438); assay: Inhibition of human MRP3 overexpressed in Sf9 insect cell membrane vesicles assessed as uptake of [3H]-estradiol-17beta-D-glucuronide in presence of ATP and GSH measured after 10 mins by membrane vesicle transport assay; format: ADME, cell-based
[3] = molecular target: T1, ATP-binding cassette sub-family C member 4 (Homo sapiens, UniProt O15439); assay: Inhibition of human MRP4 overexpressed in Sf9 cell membrane vesicles assessed as uptake of [3H]-estradiol-17beta-D-glucuronide in presence of ATP and GSH measured after 20 mins by membrane vesicle transport assay; format: ADME, cell-based
T1 sequence (O15439 whole entry): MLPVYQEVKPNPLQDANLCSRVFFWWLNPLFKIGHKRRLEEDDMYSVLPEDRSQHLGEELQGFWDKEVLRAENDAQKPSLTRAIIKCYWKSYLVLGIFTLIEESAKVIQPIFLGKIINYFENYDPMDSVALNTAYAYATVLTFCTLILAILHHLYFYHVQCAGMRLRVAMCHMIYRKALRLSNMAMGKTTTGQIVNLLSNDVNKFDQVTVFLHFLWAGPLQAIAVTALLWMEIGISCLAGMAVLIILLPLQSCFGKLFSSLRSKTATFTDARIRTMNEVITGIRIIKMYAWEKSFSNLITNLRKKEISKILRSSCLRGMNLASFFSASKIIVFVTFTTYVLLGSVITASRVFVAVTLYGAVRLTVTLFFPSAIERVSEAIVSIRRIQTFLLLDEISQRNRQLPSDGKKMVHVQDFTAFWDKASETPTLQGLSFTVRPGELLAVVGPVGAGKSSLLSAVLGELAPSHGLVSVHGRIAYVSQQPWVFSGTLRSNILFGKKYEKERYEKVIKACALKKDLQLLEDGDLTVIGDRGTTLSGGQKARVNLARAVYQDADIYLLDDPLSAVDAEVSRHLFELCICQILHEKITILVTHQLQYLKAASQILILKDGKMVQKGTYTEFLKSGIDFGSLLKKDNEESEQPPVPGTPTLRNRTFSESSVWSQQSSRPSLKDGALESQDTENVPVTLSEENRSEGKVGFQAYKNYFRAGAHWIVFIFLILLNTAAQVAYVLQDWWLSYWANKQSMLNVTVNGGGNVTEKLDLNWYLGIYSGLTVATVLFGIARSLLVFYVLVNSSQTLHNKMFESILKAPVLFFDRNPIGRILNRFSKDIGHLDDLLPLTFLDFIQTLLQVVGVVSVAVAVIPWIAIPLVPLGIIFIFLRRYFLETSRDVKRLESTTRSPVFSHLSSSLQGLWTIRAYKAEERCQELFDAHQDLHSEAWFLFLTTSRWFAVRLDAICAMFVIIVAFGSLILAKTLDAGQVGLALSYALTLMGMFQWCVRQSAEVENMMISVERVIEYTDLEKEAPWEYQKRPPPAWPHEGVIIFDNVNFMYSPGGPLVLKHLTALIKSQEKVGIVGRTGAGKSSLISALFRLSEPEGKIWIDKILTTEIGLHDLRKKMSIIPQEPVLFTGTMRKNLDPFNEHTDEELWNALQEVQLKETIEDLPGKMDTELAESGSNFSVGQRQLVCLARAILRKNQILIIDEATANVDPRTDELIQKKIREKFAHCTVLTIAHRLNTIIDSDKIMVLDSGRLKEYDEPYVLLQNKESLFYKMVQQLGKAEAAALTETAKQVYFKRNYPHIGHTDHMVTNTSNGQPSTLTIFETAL

[4] = AUC (0 to 6 hrs) in human at 800 mg administered once per week for 6 weeks through intravesical instillation measured after 6 hrs; format: ADME; set-up: dose 800 mg, time < 6 hr; settings: in vivo
[5] = Drug concentration at steady state in human at 800 mg administered once per week for 6 weeks through intravesical instillation measured after 6 hrs; format: ADME; settings: in vivo, read-out: Css
[6] = Ratio of drug concentration at steady state in human at 800 mg administered once per week for 6 weeks through intravesical instillation measured after 6 hrs to IC50 for human BSEP overexpressed in Sf9 insect cells; format: ADME; settings: in vivo, other
[7] = Ratio of drug concentration at steady state in human at 800 mg administered once per week for 6 weeks through intravesical instillation measured after 6 hrs to IC50 for human MRP2 overexpressed in Sf9 insect cells; format: ADME; settings: in vivo, other
[8] = Ratio of drug concentration at steady state in human at 800 mg administered once per week for 6 weeks through intravesical instillation measured after 6 hrs to IC50 for human MRP3 overexpressed in Sf9 insect cells; format: ADME; settings: in vivo, other
[9] = Ratio of drug concentration at steady state in human at 800 mg administered once per week for 6 weeks through intravesical instillation measured after 6 hrs to IC50 for human MRP4 overexpressed in Sf9 insect cells; format: ADME; settings: in vivo, other
[10] = AUC in human at 25 to 50 mg, po QD after 24 hrs; format: ADME, organism-based; settings: in vivo
[11] = Drug concentration at steady state in human at 25 to 50 mg, po QD after 24 hrs; format: ADME, organism-based; settings: in vivo, read-out: Css
[12] = Ratio of drug concentration at steady state in human at 25 to 50 mg, po QD after 24 hrs to IC50 for human BSEP overexpressed in Sf9 insect cells; format: ADME, organism-based; settings: in vivo
[13] = Ratio of drug concentration at steady state in human at 25 to 50 mg, po QD after 24 hrs to IC50 for human MRP4 overexpressed in Sf9 insect cells; format: ADME, organism-based; settings: in vivo
[14] = Cmax in human at 100 to 300 mg, po QD after 24 hrs; format: ADME, organism-based; settings: in vivo
[15] = Drug concentration at steady state in human at 100 to 300 mg, po QD after 24 hrs; format: ADME, organism-based; settings: in vivo, read-out: Css
[16] = Ratio of drug concentration at steady state in human at 100 to 300 mg, po QD after 24 hrs to IC50 for human BSEP overexpressed in Sf9 insect cells; format: ADME, organism-based; settings: in vivo
[17] = Ratio of drug concentration at steady state in human at 100 to 300 mg, po QD after 24 hrs to IC50 for human MRP2 overexpressed in Sf9 insect cells; format: ADME, organism-based; settings: in vivo
[18] = Ratio of drug concentration at steady state in human at 100 to 300 mg, po QD after 24 hrs to IC50 for human MRP3 overexpressed in Sf9 insect cells; format: ADME, organism-based; settings: in vivo
[19] = Ratio of drug concentration at steady state in human at 100 to 300 mg, po QD after 24 hrs to IC50 for human MRP4 overexpressed in Sf9 insect cells; format: ADME, organism-based; settings: in vivo
[20] = AUC in human at 0.25 to 20 mg, po QD after 24 hrs; format: ADME, organism-based; settings: in vivo
[21] = Drug concentration at steady state in human at 0.25 to 20 mg, po QD after 24 hrs; format: ADME, organism-based; settings: in vivo, read-out: Css
Homo sapiens [22] = assay: Ratio of drug concentration at steady state in human at 0.25 to 20 mg, po after 24 hrs to IC50 for human BSEP overexpressed in Sf9 insect cells; format: ADME, organism-based; settings: in vivo
Homo sapiens [23] = assay: Ratio of drug concentration at steady state in human at 0.25 to 20 mg, po after 24 hrs to IC50 for human MRP2 overexpressed in Sf9 insect cells; format: ADME, organism-based; settings: in vivo
Homo sapiens [24] = assay: Ratio of drug concentration at steady state in human at 0.25 to 20 mg, po after 24 hrs to IC50 for human MRP3 overexpressed in Sf9 insect cells; format: ADME, organism-based; settings: in vivo
Homo sapiens [25] = assay: Ratio of drug concentration at steady state in human at 0.25 to 20 mg, po after 24 hrs to IC50 for human MRP4 overexpressed in Sf9 insect cells; format: ADME, organism-based; settings: in vivo

Sequence of ATP-binding cassette sub-family C member 3 (O15438 whole entry): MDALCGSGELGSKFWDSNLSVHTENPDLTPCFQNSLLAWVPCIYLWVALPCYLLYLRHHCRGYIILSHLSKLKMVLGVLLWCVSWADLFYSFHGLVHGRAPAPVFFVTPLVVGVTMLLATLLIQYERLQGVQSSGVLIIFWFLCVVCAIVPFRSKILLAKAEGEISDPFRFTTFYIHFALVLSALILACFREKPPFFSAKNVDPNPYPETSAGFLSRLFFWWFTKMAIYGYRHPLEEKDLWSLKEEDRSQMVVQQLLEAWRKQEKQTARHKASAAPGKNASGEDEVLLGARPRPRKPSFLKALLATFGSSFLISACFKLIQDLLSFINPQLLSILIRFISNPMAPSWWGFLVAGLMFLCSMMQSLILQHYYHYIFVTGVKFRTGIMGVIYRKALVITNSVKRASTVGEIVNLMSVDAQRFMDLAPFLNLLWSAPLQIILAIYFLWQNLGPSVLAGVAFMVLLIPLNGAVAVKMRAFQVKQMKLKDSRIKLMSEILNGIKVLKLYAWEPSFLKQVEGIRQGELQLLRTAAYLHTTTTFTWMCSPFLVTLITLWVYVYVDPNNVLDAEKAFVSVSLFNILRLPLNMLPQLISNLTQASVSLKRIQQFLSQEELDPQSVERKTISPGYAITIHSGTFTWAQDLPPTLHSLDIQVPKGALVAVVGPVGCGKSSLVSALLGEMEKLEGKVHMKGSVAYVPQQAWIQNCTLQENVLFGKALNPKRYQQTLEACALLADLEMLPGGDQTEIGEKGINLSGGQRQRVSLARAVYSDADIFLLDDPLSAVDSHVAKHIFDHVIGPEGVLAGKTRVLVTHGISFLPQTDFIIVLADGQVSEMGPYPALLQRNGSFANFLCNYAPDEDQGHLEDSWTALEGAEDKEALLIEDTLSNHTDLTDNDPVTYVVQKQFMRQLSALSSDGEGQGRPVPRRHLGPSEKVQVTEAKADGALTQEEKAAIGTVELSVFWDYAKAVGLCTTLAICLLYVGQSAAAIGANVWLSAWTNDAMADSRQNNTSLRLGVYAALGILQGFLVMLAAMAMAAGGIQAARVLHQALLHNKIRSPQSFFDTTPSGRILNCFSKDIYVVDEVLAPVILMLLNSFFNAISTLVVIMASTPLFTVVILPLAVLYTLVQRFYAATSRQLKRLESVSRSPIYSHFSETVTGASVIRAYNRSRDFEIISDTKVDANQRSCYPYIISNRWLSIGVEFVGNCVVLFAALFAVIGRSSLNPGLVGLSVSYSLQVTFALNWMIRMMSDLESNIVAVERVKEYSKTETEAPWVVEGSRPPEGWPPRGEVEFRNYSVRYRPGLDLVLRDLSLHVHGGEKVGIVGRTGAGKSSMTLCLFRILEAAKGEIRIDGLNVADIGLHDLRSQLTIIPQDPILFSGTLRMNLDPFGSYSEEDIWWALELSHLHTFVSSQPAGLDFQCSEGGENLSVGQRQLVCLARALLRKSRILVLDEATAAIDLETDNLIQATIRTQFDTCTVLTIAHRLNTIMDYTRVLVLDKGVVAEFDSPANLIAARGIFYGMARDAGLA
Sequence of Bile salt export pump (O95342 whole entry): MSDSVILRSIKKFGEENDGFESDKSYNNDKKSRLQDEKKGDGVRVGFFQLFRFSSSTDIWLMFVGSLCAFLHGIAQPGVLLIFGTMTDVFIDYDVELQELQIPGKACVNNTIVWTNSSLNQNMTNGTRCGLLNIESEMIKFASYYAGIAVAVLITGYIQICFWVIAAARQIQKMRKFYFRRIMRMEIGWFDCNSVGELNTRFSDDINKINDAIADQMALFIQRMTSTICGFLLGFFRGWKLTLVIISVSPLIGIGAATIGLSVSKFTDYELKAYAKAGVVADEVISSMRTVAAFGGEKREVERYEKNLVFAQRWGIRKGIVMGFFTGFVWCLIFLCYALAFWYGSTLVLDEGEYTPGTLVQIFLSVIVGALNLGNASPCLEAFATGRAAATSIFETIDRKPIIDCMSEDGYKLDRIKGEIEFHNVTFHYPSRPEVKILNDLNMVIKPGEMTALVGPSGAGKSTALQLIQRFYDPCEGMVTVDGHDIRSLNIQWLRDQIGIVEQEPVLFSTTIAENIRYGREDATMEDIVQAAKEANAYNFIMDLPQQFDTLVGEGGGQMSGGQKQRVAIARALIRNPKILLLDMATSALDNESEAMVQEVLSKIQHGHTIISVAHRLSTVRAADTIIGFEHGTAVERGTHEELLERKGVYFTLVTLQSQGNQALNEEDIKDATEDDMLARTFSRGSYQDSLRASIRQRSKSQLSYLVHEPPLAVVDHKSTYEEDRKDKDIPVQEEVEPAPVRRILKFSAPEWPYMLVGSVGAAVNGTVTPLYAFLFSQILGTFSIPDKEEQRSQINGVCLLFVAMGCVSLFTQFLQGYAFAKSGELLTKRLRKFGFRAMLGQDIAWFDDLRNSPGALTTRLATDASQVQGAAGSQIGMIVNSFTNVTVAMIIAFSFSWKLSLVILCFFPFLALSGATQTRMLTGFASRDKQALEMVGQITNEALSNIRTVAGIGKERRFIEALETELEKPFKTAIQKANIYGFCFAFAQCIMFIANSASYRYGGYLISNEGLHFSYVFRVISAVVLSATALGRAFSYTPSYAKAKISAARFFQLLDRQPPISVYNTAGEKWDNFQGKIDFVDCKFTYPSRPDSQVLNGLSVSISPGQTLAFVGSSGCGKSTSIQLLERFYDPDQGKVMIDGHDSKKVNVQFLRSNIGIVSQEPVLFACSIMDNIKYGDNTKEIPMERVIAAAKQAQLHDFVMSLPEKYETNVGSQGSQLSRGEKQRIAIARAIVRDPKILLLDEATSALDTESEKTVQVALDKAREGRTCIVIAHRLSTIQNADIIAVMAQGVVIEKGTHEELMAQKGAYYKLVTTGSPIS
Sequence of ATP-binding cassette sub-family C member 2 (Q92887 whole entry): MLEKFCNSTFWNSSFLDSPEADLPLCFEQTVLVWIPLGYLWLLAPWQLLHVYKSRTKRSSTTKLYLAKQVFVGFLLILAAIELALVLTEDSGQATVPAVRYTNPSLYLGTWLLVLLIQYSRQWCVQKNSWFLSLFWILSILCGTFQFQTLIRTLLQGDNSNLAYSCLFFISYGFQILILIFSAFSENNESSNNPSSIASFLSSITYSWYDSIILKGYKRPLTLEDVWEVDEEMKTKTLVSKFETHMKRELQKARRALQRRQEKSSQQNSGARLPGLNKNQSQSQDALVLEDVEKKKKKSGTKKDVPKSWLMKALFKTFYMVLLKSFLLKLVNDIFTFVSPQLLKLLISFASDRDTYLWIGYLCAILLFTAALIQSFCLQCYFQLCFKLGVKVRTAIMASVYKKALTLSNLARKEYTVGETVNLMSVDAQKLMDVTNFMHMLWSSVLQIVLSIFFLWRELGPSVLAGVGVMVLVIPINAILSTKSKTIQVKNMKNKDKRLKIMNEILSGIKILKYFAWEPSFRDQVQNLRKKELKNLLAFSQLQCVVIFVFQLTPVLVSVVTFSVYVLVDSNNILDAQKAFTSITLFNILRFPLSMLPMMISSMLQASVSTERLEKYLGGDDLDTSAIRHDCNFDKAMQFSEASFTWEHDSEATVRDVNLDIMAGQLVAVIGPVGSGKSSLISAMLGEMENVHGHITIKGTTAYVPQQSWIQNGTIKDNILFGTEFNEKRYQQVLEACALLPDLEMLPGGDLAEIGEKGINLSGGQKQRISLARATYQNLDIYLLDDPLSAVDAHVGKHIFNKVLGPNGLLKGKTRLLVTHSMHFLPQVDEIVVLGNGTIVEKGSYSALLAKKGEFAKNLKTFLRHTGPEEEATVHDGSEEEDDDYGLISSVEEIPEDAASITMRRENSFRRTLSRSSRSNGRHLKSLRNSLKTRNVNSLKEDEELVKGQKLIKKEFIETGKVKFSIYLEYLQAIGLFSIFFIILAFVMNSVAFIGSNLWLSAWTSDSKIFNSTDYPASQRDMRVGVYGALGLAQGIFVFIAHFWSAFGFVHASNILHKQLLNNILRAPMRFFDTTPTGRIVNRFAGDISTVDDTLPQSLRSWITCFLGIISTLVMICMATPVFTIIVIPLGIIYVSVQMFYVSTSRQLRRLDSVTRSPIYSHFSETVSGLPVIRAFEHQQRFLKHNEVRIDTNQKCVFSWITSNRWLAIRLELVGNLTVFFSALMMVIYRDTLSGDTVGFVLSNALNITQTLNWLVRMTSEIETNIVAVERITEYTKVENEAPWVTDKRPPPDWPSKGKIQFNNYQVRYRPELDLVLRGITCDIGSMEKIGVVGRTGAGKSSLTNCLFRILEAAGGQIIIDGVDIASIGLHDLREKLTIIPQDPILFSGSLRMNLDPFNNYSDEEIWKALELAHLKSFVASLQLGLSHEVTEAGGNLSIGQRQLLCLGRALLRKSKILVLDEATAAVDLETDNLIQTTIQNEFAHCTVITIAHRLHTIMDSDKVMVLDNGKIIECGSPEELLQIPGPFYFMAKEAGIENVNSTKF

CCCCC(=O)OCC(=O)[C@]1(O)Cc2c(O)c3c(c(O)c2[C@@H](O[C@H]2C[C@H](NC(=O)C(F)(F)F)[C@H](O)[C@H](C)O2)C1)C(=O)c1c(OC)cccc1C3=O [VALRUBICIN]
IC50 (Bile salt export pump): 24.1 µM | IC50 [1]: 64 µM | IC50 [2]: 76.3 µM | IC50 [3]: 36.8 µM | AUC at 6 h [4]: 0.788 µM·h | concentration at 6 h [5]: 131 nM | Ratio [6]: 0.005 | Ratio [7]: 0.002 | Ratio [8]: 0.002 | Ratio [9]: 0.004

COc1cc(C)c(/C=C/C(C)=C/C=C/C(C)=C/C(=O)O)c(C)c1C [ACITRETIN]
IC50 (Bile salt export pump): 38.2 µM | IC50 [2]: > 133 µM | IC50 [3]: 49 µM | AUC at 24 h [10]: 6.13 µM·h | concentration at 24 h [11]: 255 nM | Ratio [12]: 0.007 | Ratio [13]: 0.005

CC(C)/N=c1\cc2n(-c3ccc(Cl)cc3)c3ccccc3nc-2cc1Nc1ccc(Cl)cc1 [CLOFAZIMINE]
IC50 [1]: 10.4 µM | IC50 [2]: 21 µM | IC50 [3]: 44.5 µM | Cmax [14]: 2.11 ng/mL | concentration at 24 h [15]: 88 nM | Ratio [16]: 0.007 | Ratio [17]: 0.008 | Ratio [18]: 0.004 | Ratio [19]: 0.002

CO[C@H]1C[C@@H]2CC[C@@H](C)[C@@](O)(O2)C(=O)C(=O)N2CCCC[C@H]2C(=O)O[C@H]([C@H](C)C[C@@H]2CC[C@@H](OCCO)[C@H](OC)C2)CC(=O)[C@H](C)/C=C(\C)[C@@H](O)[C@@H](OC)C(=O)[C@H](C)C[C@H](C)/C=C/C=C/C=C/1C [EVEROLIMUS]
IC50 (Bile salt export pump): 2 µM | IC50 [1]: 11.3 µM | IC50 [2]: 84 µM | IC50 [3]: 95 µM | AUC at 24 h [20]: 0.561 µM·h | concentration at 24 h [21]: 23 nM | Ratio (Homo sapiens [22]): 0.012 | Ratio (Homo sapiens [23]): 0.002 | Ratio (Homo sapiens [24]): 0 | Ratio (Homo sapiens [25]): 0

Source: ChEMBL document CHEMBL4028801, “A multifactorial approach to hepatobiliary transporter assessment enables improved therapeutic compound development” (Toxicol Sci, 2013)
